Experimental data reported in patent US20230021483A1, “[…] […] METHOD AND CLASSIFICATION OF PHARMACEUTICAL COMPONENTS BY USING TRANSCRIPTOMES” (National Institutes of Biomedical Innovation, Health and …, priority 2016, published 2023).

What was measured:
[1] = literature reports; cited from earlier work
[2] = tested on: inguinal lymph nodes (LN); test: Whole organ transcriptome (GeneChip microarray) of draining inguinal lymph nodes 6 h after adjuvant administration: sDEGs, gene modules, hierarchical clustering; format: in vivo, C57BL/6 mice; as to adjuvant group (cluster) in LN: key: G1 (interferon signaling); G2 (metabolism of lipids and lipoproteins); G3 (response to stress); G4 (response to wounding); G5 (phosphate-containing compound metabolic process); G6 (phagosome)
[3] = tested on: preferentially upregulated genes in LV, SP, LN; test: Z-score-based differential gene expression analysis (adjuvant group- or adjuvant-associated genes, 40 module mapping, TargetMine annotation); format: in vivo, C57BL/6 mice; details: ID
Summary of the method: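 Gene groups for each organ were built from combined z-score cutoffs across adjuvants, ranging from z>1 to z>3. Scores came from fold changes standardized per gene over the whole organ data set, with the three replicate z-scores added per adjuvant; sums above 3 marked preferential expression.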

Cc1ccc2c(=O)c3cccc(CC(=O)O)c3oc2c1C [DMXAA, 5,6-dimethylxanthenone-4-acetic acid]
Th response induced [1]: induces Th2 responses | module M40^LN (immune system process; dendritic cells, macrophages, neutrophils, stromal cells) ([2]; LN, 6 h): strongly induced | adjuvant group (cluster) in LN ([2]; hierarchical clustering, lymph node): G1 | Number of gene probes with statistically significant changes (sDEGs), LN, Down ([2]; i.d. administration, lymph node, fold change <0.667, p<0.01, customized PA call=1, 6 h after adjuvant): 261 | Number of gene probes with statistically significant changes (sDEGs), LN, Up ([2]; i.d. administration, lymph node, fold change >1.5, p<0.01, customized PA call=1, 6 h after adjuvant): 1342 | z sum, 1428027_at LOC100653389 ([3]; LN, Modules 26): −2.22 | z sum, 1419721_at Niacr1 ([3]; LN, Modules 27): −1.88 | z sum, 1418424_at Tnfaip6 ([3]; LN, Modules 29): −1.91 | z sum, 1419534_at Olr1 ([3]; LN, Modules 29): −1.6 | z sum, 1421457_a_at Samsn1 ([3]; LN, Modules 29): −2.04 | z sum, 1422305_at Ifnb1 ([3]; LN, Modules 29): −1.99 | z sum, 1423028_at Ifna2 ([3]; LN, Modules 29): −2.04 | z sum, 1425837_a_at Ccrn4l ([3]; LN, Modules 29): −1.85 | z sum, 1436387_at C330006P03Rik///Homer1 ([3]; LN, Modules 29): −2.24 | z sum, 1439349_at Sbno2 ([3]; LN, Modules 29): −1.84 | z sum, 1444010_at Eif4e ([3]; LN, Modules 29): −1.94 | z sum, 1448325_at Ppp1r15a ([3]; LN, Modules 29): −1.63 | z sum, 1449311_at Bach1 ([3]; LN, Modules 29): −1.97 | z sum, 1450297_at Il6 ([3]; LN, Modules 29): −1.88 | z sum, 1455197_at Rnd1 ([3]; LN, Modules 29): −1.86 | z sum, 1455899_x_at Socs3 ([3]; LN, Modules 29): −1.79 | z sum ([3]; LN, Modules 34): −2.09 | z sum, 1417252_at Ptgs2 ([3]; LN, Modules 34): −1.55 | z sum, 1417263_at Ptgs2 ([3]; LN, Modules 34): −1.77 | z sum, 1421473_at Il1a ([3]; LN, Modules 34): −1.71 | z sum, 1439981_at Tespa1 ([3]; LN, Modules 35): −1.8 | z sum, 1441843_s_at 5230400M03Rik ([3]; LN, Modules 35): −2.25 | z sum, 1442556_at --- ([3]; LN, Modules 35): −2.03 | z sum, 1443414_at C78513 ([3]; LN, Modules 35): −2.02 | z sum, 1444598_at --- ([3]; LN, Modules 35): −2 | z sum, 1445534_at --- ([3]; LN, Modules 35): −2 | z sum, 1446245_at --- ([3]; LN, Modules 35): −2.34 | z sum, 1457944_at --- ([3]; LN, Modules 35): −2.16 | z sum, 1458376_at B930025B16Rik ([3]; LN, Modules 35): −2.11 | z sum, 1459144_at --- ([3]; LN, Modules 35): −2.06 | z sum, 1425687_at Cflar ([3]; LN, Modules 36): −1.76 | z sum, 1427736_a_at Ccrl2 ([3]; LN, Modules 36): −2.22 | z sum, 1449169_at Has2 ([3]; LN, Modules 36): −2.25 | z sum, 1453636_at Pcgf5 ([3]; LN, Modules 36): −2.11 | z sum, 1457888_at --- ([3]; LN, Modules 36): −2.02 | z sum, 1419508_at Ripk1 ([3]; LN, Modules 37): −2.04 | z sum, 1421578_at Ccl4 ([3]; LN, Modules 37): −1.85 | z sum, 1421679_a_at Cdkn1a ([3]; LN, Modules 37): −1.99 | z sum, 1424638_at Cdkn1a ([3]; LN, Modules 37): −1.71 | z sum, 1433508_at Klf6 ([3]; LN, Modules 37): −1.54 | z sum, 1434350_at Csrnp1 ([3]; LN, Modules 37): −1.99 | z sum, 1439680_at Tnfsf10 ([3]; LN, Modules 37): −2.27 | z sum, 1448724_at Cish ([3]; LN, Modules 37): −1.56 | z sum, 1451340_at Arid5a ([3]; LN, Modules 37): −2.28 | z sum, 1453851_a_at Gadd45g ([3]; LN, Modules 37): −2 | z sum, 1457404_at Nfkbiz ([3]; LN, Modules 37): −2.06 | z sum, 1458589_at --- ([3]; LN, Modules 37): −1.59 | z sum, 1422054_a_at 5kil ([3]; LN, Modules 40): −1.69 | z sum, 1428735_at Cd69 ([3]; LN, Modules 40): −2.42 | Adar 1425405_a_at (Group G1, Modules 20) ([3]; LV, sample x1): 2.03 | Adar 1434268_at (Group G1, Modules 20) ([3]; LV, sample x1): 2.15 | Ddx58 1436562_at (Group G1, Modules 20) ([3]; LV, sample x1): 2.07 | Ddx58 1456890_at (Group G1, Modules 20) ([3]; LV, sample x1): 1.67 | Eif2ak2 1422005_at (Group G1, Modules 20) ([3]; LV, sample x1): 1.36 | G3bp2 1421323_a_at (Group G1, Modules 20) ([3]; LV, sample x1): 1.32 | Gm9706///Isg15 1431591_s_at (Group G1, Modules 20) ([3]; LV, sample x1): 1.28 | H2-T10///H2-T22///H2-T9 1449875_s_at (Group G1, Modules 20) ([3]; LV, sample x1): 1.27 | Ifih1 1426276_at (Group G1, Modules 20) ([3]; LV, sample x1): 1.25 | Ifit1 1450783_at (Group G1, Modules 20) ([3]; LV, sample x1): 2.21 | Ifit3 1449025_at (Group G1, Modules 20) ([3]; LV, sample x1): 1.39 | Irf7 1417244_a_at (Group G1, Modules 20) ([3]; LV, sample x1): 1.05 | Irgm1 1418825_at (Group G1, Modules 20) ([3]; LV, sample x1): 1.39 | Mndal 1426906_at (Group G1, Modules 20) ([3]; LV, sample x1): 1.42 | Pml 1448757_at (Group G1, Modules 20) ([3]; LV, sample x1): 1.62 | Pml 1456103_at (Group G1, Modules 20) ([3]; LV, sample x1): 2.18 | Rnf213 1455500_at (Group G1, Modules 20) ([3]; LV, sample x1): 1.79
